Patent US10597366B2, “Aryl ethers and uses thereof” (Peloton Therapeutics, Inc., priority 2013, dated 2020)

Experiments:
[1] = system: human VEGFA; assay: Plasma human VEGFA level of 786-O xenograft bearing mice; format: in vivo; conditions: 10, 30 and 100 mg/kg, three times at 12 hour intervals, prior to vs 12 h post treatment, FIG. 5
[2] = system: 786-O-Hif-Luc cells (luciferase gene driven by multiple HIF responsive elements); assay: Luciferase Assay; format: cell-based; conditions: 24 h, 786-O-Hif-Luc cells, about 24 hours; read-out: Mean Luciferease EC50
Method: A pool of infected cells were then selected against 2 μg/mL of puromycin (P8833, Sigma) for 10 days followed by limited dilution to select single clones.
Each concentration was tested in triplicate. After about 24 hours, luciferase activity was determined using ONE-Glo Luciferase Assay Reagent (E6110, Promega) following the manufacturer's recommended procedure. EC50 were calculated by using Dotmatics software.

[3] = system: EPO and PGK1 mRNA in mouse kidney; assay: In vivo PK/PD study: mouse kidney mRNA levels by qRT-PCR; design: species or system SCID/Biege mice; conditions: oral gavage three times at 12 hour intervals; 10, 30 or 100 mg/kg
Method: About 5×10^6 renal cell carcinoma 786-O tumor cells (ATCC® CRL-1932, VHL and HIF-1α null cell line) in PBS and Matrigel (1:1 in volume) were injected subcutaneously at the right flanks of SCID/Biege mice at 6-7 weeks of age for xenograft development. When the xenografts reached about 450 mm^3 in size, the tumor bearing mice were randomly divided into 4 groups (n=4). Plasma was collected prior to treatment by retro-orbital bleeding. […] All animals were sacrificed at 12 hours post last dose. Tumor, kidney, and plasma were collected from each animal. Total RNA was extracted from the tumors and kidneys. The mRNA levels of HIF-1α, HIF-2α and their respective target genes were determined by qRT-PCR (FIG. 1).

[4] = system: renal cell carcinoma 786-O xenograft; assay: In vivo efficacy study, 786-O xenograft; design: species or system SCID/Biege mice; conditions: all treatment groups; t-Test; Compound 15 20 days, Compound 163 28 days
[5] = system: VEGFA concentration in medium of 786-O cells; assay: VEGF ELISA Assay; format: cell-based; conditions: Homo sapiens, 786-0, 786-O cells; read-out: Mean VEGF ELISA EC50
Method: Each concentration had duplicated wells. About 20 hours later, medium was removed by suction and each well was supplied with 180 μL of growth medium. About 20 μl freshly-made 10× compound stocks were added to each well. […] The EC50 was calculated by GraphPad Prism using the dose-response-inhibition (four parameter) equation. The cell seeded plate was then subjected to CellTiter-Glo luminescence cell viability assay (Promega) by adding 50 μL of Celltiter Glo reagent into each well and shaking the plate for 8 minutes at 550 rpm (Thermomixer R, Eppendorf) then read luminescence signal in plate reader (3 second delay, 0.5 second/well integration time, Synergy 2 multi Detection Microplate reader) immediately.

Row | SMILES | plasma level of human VEGFA [1] | EC50 [2] [nM] | Mouse kidney EPO mRNA level (HIF-2α specifically regulated gene) [3] | Mouse kidney PGK1 mRNA level (HIF-1α targeted gene) [3] | Tumor size versus vehicle [4] | EC50 [5] [nM]
1 | N#Cc1cc(F)cc(Oc2ccc(S(=O)(=O)C(F)F)c3c2CC(F)(F)[C@H]3O)c1 [Compound 15, 3-[(1S)-7-(difluoromethylsulfonyl)-2,2-difluoro-1-hydroxy-indan-4-yl]oxy-5-fluoro-benzonitrile] | reduced | 7 | reduced | remained unchanged | statistically significant reduction | –
2 | O=S(=O)(c1ccc(Oc2ccc(F)c(F)c2)c2c1[C@H](O)C(F)(F)C2)C(F)F [Compound 196, (S)-7-((Difluoromethyl)sulfonyl)-4-(3,4-difluorophenoxy)-2,2-difluoro-2,3-dihydro-1H-inden-1-ol] | – | 46 | – | – | – | 47
3 | N#Cc1cccc(Oc2ccc(S(=O)(=O)C(F)(F)F)c(C#N)c2Br)c1 [Compound 99, 2-Bromo-3-(3-cyanophenoxy)-6-((trifluoromethyl)sulfonyl)benzonitrile] | – | 420 | – | – | – | 550
4 | N#Cc1cncc(Oc2ccc(S(=O)(=O)C(F)(F)F)c3c2C[C@@H](F)[C@H]3O)c1 [Compound 225, 5-(((1S,2R)-2-Fluoro-1-hydroxy-7-((trifluoromethyl)sulfonyl)-2,3-dihydro-1H-inden-4-yl)oxy)nicotinonitrile] | – | 25 | – | – | – | 69
5 | O=S(=O)(c1ccc(Oc2cc(F)cc(Cl)c2)c2c1C(O)C(F)(F)C2)C(F)F (centres unmarked) [Compound 8, 4-(3-chloro-5-fluoro-phenoxy)-7-(difluoromethylsulfonyl)-2,2-difluoro-indan-1-ol] | – | 17 | – | – | – | 33
6 | CS(=O)(=O)c1ccc(Oc2cncc(C#N)c2)c2c1[C@H](O)C(F)(F)C2 [Compound 325, (S)-5-((2,2-Difluoro-1-hydroxy-7-(methylsulfonyl)-2,3-dihydro-1H-inden-4-yl)oxy)nicotinonitrile] | – | 490 | – | – | – | 150
7 | CS(=O)(=O)c1ccc(Oc2cc(F)cc(F)c2)c2c1[C@H](O)C(F)(F)C2 [Compound 161, (S)-4-(3,5-Difluorophenoxy)-2,2-difluoro-7-(methylsulfonyl)-2,3-dihydro-1H-inden-1-ol] | – | 4 | – | – | – | 11
